In US20120129833A1, “CYCLIC KETOENOLS FOR THERAPY” (BAYER PHARMA AKTIENGESELLSCHAFT, priority 2010, published 2012):

Columns and labels:
[1] = molecular target: T1, ACC2 (acetyl-CoA carboxylase 2) (Homo sapiens, UniProt O00763); test: Human ACC2 enzyme assay (HTRF ADP detection); type: biochemical; conditions: 20 μM acetyl-CoA, 15 min pre-incubation, 20 min at 22° C.; read-out: ACC 2 IC50
T1 construct: catalogue no; 50201, amino acids 39—end, expressed in baculovirus-transfected Sf9 insect cells; His (C); purchased BPS Bioscience (San Diego, Calif.) 50201; host or cells: baculovirus-transfected Sf9 insect cells
T1 sequence (O00763 39-2458 limits assumed): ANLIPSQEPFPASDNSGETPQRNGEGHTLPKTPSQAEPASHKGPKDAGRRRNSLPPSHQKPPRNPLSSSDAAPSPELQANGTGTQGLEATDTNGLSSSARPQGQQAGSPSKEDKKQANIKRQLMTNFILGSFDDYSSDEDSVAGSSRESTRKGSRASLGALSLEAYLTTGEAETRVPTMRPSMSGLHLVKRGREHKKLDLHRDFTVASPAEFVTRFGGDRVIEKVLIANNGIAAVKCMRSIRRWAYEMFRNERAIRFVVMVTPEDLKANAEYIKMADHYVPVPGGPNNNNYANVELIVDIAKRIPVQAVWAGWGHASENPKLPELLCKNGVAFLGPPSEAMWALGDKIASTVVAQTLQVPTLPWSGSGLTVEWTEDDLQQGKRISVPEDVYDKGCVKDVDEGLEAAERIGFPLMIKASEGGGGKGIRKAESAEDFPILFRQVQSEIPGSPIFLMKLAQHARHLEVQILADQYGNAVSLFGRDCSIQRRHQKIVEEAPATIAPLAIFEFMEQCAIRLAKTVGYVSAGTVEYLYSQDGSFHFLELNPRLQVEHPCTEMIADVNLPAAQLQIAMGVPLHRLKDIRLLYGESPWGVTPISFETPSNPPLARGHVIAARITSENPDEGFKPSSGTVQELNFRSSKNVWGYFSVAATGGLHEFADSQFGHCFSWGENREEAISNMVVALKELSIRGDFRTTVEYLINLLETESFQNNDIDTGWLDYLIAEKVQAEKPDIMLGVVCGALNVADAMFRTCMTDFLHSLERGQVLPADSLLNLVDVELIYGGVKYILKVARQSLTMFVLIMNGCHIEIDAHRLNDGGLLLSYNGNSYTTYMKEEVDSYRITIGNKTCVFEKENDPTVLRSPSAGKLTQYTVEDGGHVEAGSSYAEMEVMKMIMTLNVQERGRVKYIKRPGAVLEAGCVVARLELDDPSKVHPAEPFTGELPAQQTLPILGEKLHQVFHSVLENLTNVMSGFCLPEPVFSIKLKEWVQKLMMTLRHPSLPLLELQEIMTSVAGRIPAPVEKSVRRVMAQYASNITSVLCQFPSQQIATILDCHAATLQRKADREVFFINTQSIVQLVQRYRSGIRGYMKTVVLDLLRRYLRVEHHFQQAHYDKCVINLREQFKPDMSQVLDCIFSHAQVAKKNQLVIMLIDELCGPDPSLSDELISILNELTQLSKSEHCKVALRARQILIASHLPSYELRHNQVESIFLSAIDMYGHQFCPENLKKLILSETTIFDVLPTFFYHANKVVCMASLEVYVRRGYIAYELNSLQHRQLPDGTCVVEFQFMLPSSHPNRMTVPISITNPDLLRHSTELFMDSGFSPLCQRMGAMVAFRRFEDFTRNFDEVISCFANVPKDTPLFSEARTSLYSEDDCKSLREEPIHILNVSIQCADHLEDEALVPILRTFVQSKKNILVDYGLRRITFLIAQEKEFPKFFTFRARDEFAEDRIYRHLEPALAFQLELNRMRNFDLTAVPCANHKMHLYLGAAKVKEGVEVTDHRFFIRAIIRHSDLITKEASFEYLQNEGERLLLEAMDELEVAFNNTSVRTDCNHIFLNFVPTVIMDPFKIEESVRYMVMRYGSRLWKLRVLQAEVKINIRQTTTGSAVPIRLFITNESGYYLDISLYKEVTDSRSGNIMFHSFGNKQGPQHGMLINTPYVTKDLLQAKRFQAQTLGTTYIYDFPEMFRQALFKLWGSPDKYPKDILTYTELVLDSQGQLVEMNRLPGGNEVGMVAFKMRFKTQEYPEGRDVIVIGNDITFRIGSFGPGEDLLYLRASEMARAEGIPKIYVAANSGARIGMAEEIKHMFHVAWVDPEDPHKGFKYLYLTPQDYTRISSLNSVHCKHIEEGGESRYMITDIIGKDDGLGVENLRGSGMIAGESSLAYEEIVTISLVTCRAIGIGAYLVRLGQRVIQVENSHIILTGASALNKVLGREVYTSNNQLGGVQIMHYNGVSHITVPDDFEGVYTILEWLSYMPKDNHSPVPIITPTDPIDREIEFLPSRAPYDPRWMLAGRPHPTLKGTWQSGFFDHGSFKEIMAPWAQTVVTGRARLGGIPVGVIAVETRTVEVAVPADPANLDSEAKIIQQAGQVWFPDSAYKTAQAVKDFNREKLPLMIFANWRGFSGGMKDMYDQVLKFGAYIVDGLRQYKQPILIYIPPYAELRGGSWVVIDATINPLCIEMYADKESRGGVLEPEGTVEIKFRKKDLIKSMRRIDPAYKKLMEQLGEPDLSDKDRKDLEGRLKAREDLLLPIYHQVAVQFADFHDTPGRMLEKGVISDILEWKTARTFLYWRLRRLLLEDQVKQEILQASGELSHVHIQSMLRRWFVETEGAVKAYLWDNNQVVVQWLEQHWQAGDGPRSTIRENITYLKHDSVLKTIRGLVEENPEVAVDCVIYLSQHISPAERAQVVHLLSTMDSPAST

[2] = molecular target: T2, recombinant human ACC1 (acetyl-CoA carboxylase 1) (Homo sapiens, UniProt Q13085); test: Human ACC1 enzyme assay (HTRF ADP detection); type: biochemical; conditions: 50 μM ATP, 20 μM acetyl-CoA, 15 min pre-incubation, 20 min at 22° C.; read-out: ACC 1 IC50;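 also: ADP by-product quantified by competitive HTRF immunoassay with europium cryptate anti-ADP antibody and d2-labelled ADP, read after 1 h binding at 22 °C, enzyme near 2.5 ng/µl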
T2 construct: NM_198834, amino acids 39—end; FLAG (C); made in house; host or cells: baculovirus-transfected insect cells (Hi5)
Protocol: The basic principle of the assay is the measurement of adenosine diphosphate (ADP), which is formed as a by-product, by means of an HTRF®-based competitive immunoassay (HTRF=Homogeneous Time Resolved Fluorescence).
The amount of complex of d2-labelled ADP and europium cryptate-labelled anti-ADP antibody was then determined by measuring the resonance energy transfer of europium cryptate to d2.

| SMILES | IC50 [1] [µM] | IC50 [2] [µM] |
| --- | --- | --- |
| COC1CCC2(CC1)OC(=O)C(c1cc(-c3ccccc3Cl)ccc1C)=C2O (centres unmarked) [Example 2-7, 3-(2′-chloro-4-methylbiphenyl-3-yl)-4-hydroxy-8-methoxy-1-oxaspiro[4.5]dec-3-en-2-one] | > 20 | 0.5 |
| Cc1ccc(-c2ccc(Cl)cc2)cc1C1=C(O)CC(C)(C)N(C)C1=O [Example 9-4, 3-(4′-chloro-4-methylbiphenyl-3-yl)-4-hydroxy-1,6,6-trimethyl-5,6-dihydropyridin-2(1H)-one] | > 20 | 5.38 |
| Cc1ccc(-c2ccc(Cl)cc2)c(C)c1C1=C(O)C2(CCC3(CCCO3)CC2)NC1=O (centres unmarked) [Example 1-34, 11-(4′-chloro-2,4-dimethylbiphenyl-3-yl)-12-hydroxy-1-oxa-9-azadispiro[4.2.4.2]tetradec-11-en-10-one] | 9.4 | 0.47 |
| Cc1cc(C)c(-c2ccc(Cl)cc2)c(C)c1C1=C(O)C(C)(C)OC1=O [Example 2-5, 3-(4′-chloro-2,4,6-trimethylbiphenyl-3-yl)-4-hydroxy-5,5-dimethylfuran-2(5H)-one] | 5.72 | 1.48 |
| CCOC1CCC2(CC1)NC(=O)C(c1c(C)cc(C)c(-c3ccc(Cl)cc3)c1C)=C2O (centres unmarked) [Example 1-75, 3-(4′-chloro-2,4,6-trimethylbiphenyl-3-yl)-8-ethoxy-4-hydroxy-1-azaspiro[4.5]dec-3-en-2-one] | 0.376 | 7.97 |
| Cc1ccc(-c2ccc(C)c(C3=C(O)C4(CCCCC4)CC3=O)c2)cc1 [Example 6-1, 3-(4,4′-dimethylbiphenyl-3-yl)-4-hydroxyspiro[4.5]dec-3-en-2-one] | 16 | 0.655 |
| Cc1cc(C)c(-c2ccc(Cl)cc2)cc1C1=C(O)[C@]2(CC[C@@]3(CCCO3)CC2)OC1=O [Example 2-30, (5r,8s)-3-(4′-chloro-4,6-dimethylbiphenyl-3-yl)-4-hydroxy-1,9-dioxadispiro[4.2.4.2]tetradec-3-en-2-one] | 0.032 | 0.281 |
